Consider two substances from article PMC11475408, “All‐Inorganic Polyoxometalates Act as Superchaotropic Membrane Carriers” (Advanced Materials (Deerfield Beach, Fla.), 2023).

Series [1] in a line: CF transport assay in anionic vesicles. The settings on record: heptaArg cargo; for heptaArg Ymax, anionic vesicles / EC50: CF assay, pH 7.4; for heptaArg Ymax, anionic vesicles: DMPE/DPPG/CHOL 1/2/1 (anionic), 13 µM phospholipids, 10 mM Tris, 140 mM NaCl; for EC50 / heptaArg E, anionic vesicles: DMPE/DPPG/CHOL (anionic); for heptaArg E, anionic vesicles: f = 20.6. The format is biochemical. The method, then: To better mimic biological membranes, which contain negatively charged components and cholesterol, equivalent transport experiments were performed in anionic liposomes^[ [19], [20] ^] with the prototypal POM carriers, [PVW11]^4‒ and [SiMoW11]^4‒ . […] This encouraged us to transfer the experiments to CHO‐K1 (Chinese hamster ovary) cells, after we had confirmed sufficient stability of the most promising POM carriers, [PVW11]^4‒ and [SiMoW11]^4‒ , in the cellular nutrient mixture (F‐12 Ham's medium, Figures S26–S28C, Supporting Information).
Anionic vesicles were prepared analogously except for the lipid composition, DMPE/DPPG/CHOL (4.4/10.4/2.6 mg, 1/2/1 molar ratio, DMPE: 1,2‐dimyristoyl‐sn‐glycero‐3‐phosphoethanolamine; DPPG: 1,2‐dipalmitoyl‐sn‐glycero‐3‐phospho‐(1´‐rac‐glycerol); CHOL: cholesterol) in a 1:1 mixture of CHCl3 and MeOH (1 mL), the hydration (60 min) and extrusion were performed at 55 °C, and the employed buffers were 100 mM CF, 10 mM Tris, pH 7.4 and 10 mM Tris, 140 mM NaCl, pH 7.4 for rehydration and elution, respectively.
Vesicles stock solutions (5–10 µL) were diluted with the corresponding buffer in a disposable plastic cuvette and gently stirred (total volume 2000 µL, final lipid concentration 13 µM). Carboxyfluorescein fluorescence was monitored at λ em = 517 nm (λ ex = 492 nm) as a function of time after addition of POMs at 60 s, analyte at 120 s and Triton X‐100 (24 µL 1.2% wt/vol) at 600 s to lyse the vesicles, for calibration. Fluorescence intensities were normalized to fractional emission as (1) It=It−I0/I∞−I0 where I 0 = I t before POM addition and […] after lysis. For Hill analysis, I t before lysis was defined as transport activity, Y, and plotted against POM concentration, c, and fitted to the Hill Equation (2), to afford the activity in absence of POM, Y 0, the maximal activity, Y max, the concentration needed to achieve 50% of maximal activity, EC 50, and the Hill coefficient, n (2) Y=Y0+Ymax−Y0/1+EC50/c^n […]
Figure S8. Heptaarginine transport through anionic vesicles[22-23][24] (DMPE/DPPG/CHOL, 1/2/1 molar ratio) facilitated by [PVW11]4‒ (a) and [SiMoW11]4‒ (c). Transport activity as function of [PVW11]4‒ (b) and [SiMoW11]4‒ (d) concentration, solid lines correspond to the resulting fit with the Hill equation.
Table S5. Membrane transport parameters of active POMs towards different analytes and different lipid composition. […]
a) 13 µM phospholipids. b) 10 µM cargo. c) Maximal activity; ±2% error (SD). d) Effective concentration to reach 50% activity of Ymax; 5 % error (SD). e) Activation efficiency E = Ymax (pEC50/f), were pEC50 is the negative logarithm of the EC50, and f a scaling factor set to 20.6 to allocate E between 0

Another series deals with CHO‐K1 cells. Kind of series: Cellular viability, resazurin assay. The format is cell-based, Chinese hamster. The settings on record: CHO-K1, up to 10 µM carrier, 24 h, n = 3. The method, then:
For cell viability assay in thepresence of activators, CHO‐K1 cells were incubated in Ham's F‐12 medium containing 10% fetal bovine serum and 1.0% penicillin streptomycin at 37 °C in a 5% CO2 for 24 h. CHO‐K1 cells were dispersed in a 96‐well flat bottom tissue culture treated plates (Eppendorf) at density of 5 × 10^3 cells per well (per 100 µL) and incubated in Ham's F‐12 containing 10% v/v fetal bovine serum at 37 °C in a 5% CO2 incubator for 12 h to allow cell adhesion. Then, cells were incubated with POM, B12Br12 ^2−, or PyBu (10, 50, and 100 µM) for another 24 h. After this incubation time, 20 µL resazurin solution (0.15 mg mL^−1) was added to cells and incubated for another 3 h. Finally, the plates were read at λ em = 590 nm (λ ex = 560 nm) using a JASCO fluorometer FP‐8500. The cell viability was evaluated by the following equation (4) Cellviability=FIsample−FIblank/FIcontrol−FIblank×100% where, FI sample is the fluorescence intensity of cells incubated with different compounds, FI blank is the fluorescence intensity of medium, and FI control is the fluorescence intensity of cells in absence of any compound.
6. Transport in cellular membranes
Figure S13. Viability of CHO-K1cells (resazurin assay) incubated with different carrier concentrations (0, 10, 50, and 100 µM) for 24 hours. Error bars refer to standard deviation (n = 3).
Figure S14. […]

By EC50 is commonly meant the concentration at which the effect is half-maximal. For the substance “K4[α‐Si^IVMo^VIW^VI 11O40]·24H2O [[SiMoW11]^4‒]”, in series [1], the “heptaArg Ymax, anionic vesicles” value worked out at 61%; a half-maximal response (EC50) required 60 µM; the “heptaArg E, anionic vesicles” value was found to be 3.6. Also, the Cell viability result in the series with CHO‐K1 cells was “about 80%”.
As to “K4[α‐P^VV^VW^VI 11O40]·4H2O [[PVW11]^4‒]”, in series [1], the “heptaArg Ymax, anionic vesicles” value amounted to 45%; the concentration for a half-maximal effect (EC50) stood at 50 µM; the “heptaArg E, anionic vesicles” value came to 2.8. The Cell viability entry in the series on CHO‐K1 cells is on record as “about 80%”.
